Where “and” joins values, the source holds several entries; their conditions need not be identical. Identical values can stand only once. Toxic doses and inconclusive results are not listed. *1 amine or outer side, *2 acyl side, *3 side chain or, on linkers, in order; H or OH if unused. Where a SMILES comes first, the peptide text is derived from it. Bridges are numbered along the chain shown (N, C = ends). Roman numbers before positions name the chains, in order. [ ]: non-standard residue; d: D form. Actinocin(9to1) = Cc1c2oc3c(C)ccc(C(=O)[*:1])c3nc-2c(C(=O)[*:2])c(N)c1=O; aThr = C[C@H](O)[C@H](N)C(=O)O; NMeV = CN[C@H](C(=O)O)C(C)C; Sar = CNCC(=O)O

For this assay, the system named is CD2F1 mice, P388/ADR leukemia ip, median survival T/C. The experiment in a line: NCI In Vivo Anticancer Drug Screen. Data for tumor model P388 Leukemia resistant to Adriamycin; NSC 123127, Developed at Scr 08 (intraperitoneal) in CD2F1 (CDF1) mice. As to conditions: endpoint: median survival time, higher = longer survival. Here is the method:
The antitumor activity of compounds was measured in mice bearing transplantable tumors. Survival or tumor size were measured and the results are expressed as the measurement made in the treated group (T) divided by the measurement made in the vehicle treated control group (C). The tumor model used in this assay is P388 Leukemia resistant to Adriamycin; NSC 123127, Developed at Scr 08 (intraperitoneal) in CD2F1 (CDF1) mice

The mark [1] stands for this setting: dose: 3.12 mg/kg/injection, schedule: Q01DX005 (ip), vehicle: Klucel (hydroxypropylcellulose) (HPC).
Setting [2] is: dose: 6.25 mg/kg/injection, schedule: Q01DX005 (ip), vehicle: Klucel (hydroxypropylcellulose) (HPC).
Where [3] appears, read: dose: 25.0 mg/kg/injection, schedule: Q01DX005 (ip), vehicle: Klucel (hydroxypropylcellulose) (HPC).
Setting [4] is: dose: 50.0 mg/kg/injection, schedule: Q01DX005 (ip), vehicle: Klucel (hydroxypropylcellulose) (HPC).
Setting [5] is: dose: 100.0 mg/kg/injection, schedule: Q01DX005 (ip), vehicle: Klucel (hydroxypropylcellulose) (HPC).

In the case of `Nc1ccc2c(c1)CN1C(=O)c3ccccc3C1=N2`, the T/C runs as follows: (dose: 33.0 mg/kg/injection, schedule: Q01DX009 (ip), vehicle: saline with Tween-80) 215 % of control (2×) and 265 % of control; (dose: 50.0 mg/kg/injection, schedule: Q01DX009 (ip), vehicle: saline with Tween-80) 270 % of control and 278 % of control and 297 % of control; (dose: 75.0 mg/kg/injection, schedule: Q01DX009 (ip), vehicle: saline with Tween-80) 277 % of control and 297 % of control and 336 % of control; (dose: 75.0 mg/kg/injection, schedule: Q01DX009 (oral), vehicle: saline with Tween-80) 102 % of control; (dose: 112.0 mg/kg/injection, schedule: Q01DX009 (ip), vehicle: saline with Tween-80) 120 % of control; (dose: 112.0 mg/kg/injection, schedule: Q01DX009 (oral), vehicle: saline with Tween-80) 104 % of control. The T/C is 121 % of control (dose: 169.0 mg/kg/injection, schedule: Q01DX009 (ip), vehicle: saline with Tween-80); 105 % of control (dose: 169.0 mg/kg/injection, schedule: Q01DX009 (oral), vehicle: saline with Tween-80); 118 % of control (dose: 252.2 mg/kg/injection, schedule: Q01DX009 (oral), vehicle: saline with Tween-80); 124 % of control (dose: 378.2 mg/kg/injection, schedule: Q01DX009 (oral), vehicle: saline with Tween-80).
Regarding `COC1CC2C=C(C)/C=C/C=C/C(=O)NC(c3ccccc3)C/C=C/CCC(O)CC(=O)C2=C1O` (stereo unspecified), the T/C runs as follows: under setting [1], 101 % of control; under setting [2], 116 % of control.
For `CN=C(NC)c1ccc(NC(=O)/C=C\c2ccc(/C=C/C(=O)Nc3ccc(C(=NC)NC)cc3)cc2)cc1`, the T/C is, setting by setting: (dose: 1.56 mg/kg/injection, schedule: Q01DX005 (ip), vehicle: Klucel (hydroxypropylcellulose) (HPC)) 107 % of control; under setting [1], 109 % of control; under setting [2], 116 % of control.
Consider `CCOC1NC(=O)Oc2ccccc21` (stereo unspecified), for which the T/C was 101 % of control under setting [1]; 100 % of control under setting [2]; 94 % of control (dose: 12.5 mg/kg/injection, schedule: Q01DX005 (ip), vehicle: Klucel (hydroxypropylcellulose) (HPC)); 87 % of control and 101 % of control and 104 % of control under setting [3]; 88 % of control and 110 % of control under setting [4]; 108 % of control (dose: 72.0 mg/kg/injection, schedule: Q01DX005 (ip), vehicle: Klucel (hydroxypropylcellulose) (HPC)). In addition, the T/C by setting is: under setting [5], 104 % of control and 118 % of control; (dose: 120.0 mg/kg/injection, schedule: Q01DX005 (ip), vehicle: Klucel (hydroxypropylcellulose) (HPC)) 116 % of control; (dose: 333.0 mg/kg/injection, schedule: Q01DX005 (ip), vehicle: Klucel (hydroxypropylcellulose) (HPC)) 153 % of control.
As to `Cc1c2oc3c(C)ccc(C(=O)N[C@@H]4C(=O)N[C@H](C(C)C)C(=O)N5CCC[C@H]5C(=O)N(C)CC(=O)N(C)[C@@H](C(C)C)C(=O)O[C@H]4C)c3nc-2c(C(=O)N[C@@H]2C(=O)N[C@H](C(C)C)C(=O)N3CCC[C@H]3C(=O)N(C)CC(=O)N(C)[C@@H](C(C)C)C(=O)O[C@H]2C)c(N)c1=O` (I: [aThr][dV]P[Sar][NMeV] / II: [aThr][dV]P[Sar][NMeV]; ester I:1-I:C, II:1-II:C; linker I:N-II:N via Actinocin(9to1)), the T/C (dose: 25.0 micrograms/kg/injection, schedule: Q01DX005 (ip), vehicle: saline + alcohol) was 124 % of control; the T/C (dose: 50.0 micrograms/kg/injection, schedule: Q01DX005 (ip), vehicle: saline + alcohol) was 120 % of control; the T/C (dose: 100.0 micrograms/kg/injection, schedule: Q01DX005 (ip), vehicle: saline + alcohol) was 101 % of control.
`CC[C@]1(O)C[C@H]2CN(CCc3c([nH]c4ccccc34)[C@@](C(=O)OC)(c3cc4c(cc3OC)N(C=O)[C@H]3[C@@](O)(C(=O)OC)[C@H](OC(C)=O)[C@]5(CC)C=CCN6CC[C@]43[C@@H]65)C2)C1`: the T/C was 109 % of control (dose: 0.43 mg/kg/injection, schedule: Q04DX002 (ip), vehicle: saline); 111 % of control (dose: 0.72 mg/kg/injection, schedule: Q04DX002 (ip), vehicle: saline); 109 % of control (dose: 1.2 mg/kg/injection, schedule: Q04DX002 (ip), vehicle: saline); 103 % of control (dose: 2.0 mg/kg/injection, schedule: Q04DX002 (ip), vehicle: saline); 115 % of control (dose: 3.33 mg/kg/injection, schedule: Q04DX002 (ip), vehicle: saline).
`N=C(N)c1ccc(N=NNc2ccc(C(=N)N)cc2)cc1`: the T/C runs as follows: (dose: 12.5 mg/kg/injection, schedule: Q01DX005 (ip), vehicle: saline with Tween-80) 105 % of control; (dose: 25.0 mg/kg/injection, schedule: Q01DX005 (ip), vehicle: saline with Tween-80) 115 % of control; (dose: 50.0 mg/kg/injection, schedule: Q01DX005 (ip), vehicle: saline with Tween-80) 117 % of control.
For the compound `C=C1c2cccc(O)c2C(O)=C2C(=O)[C@]3(O)C(O)=C(C(N)=O)C(=O)[C@@H](N(C)C)[C@@H]3[C@@H](O)[C@H]12`, the T/C reads like this: (dose: 21.6 mg/kg/injection, schedule: Q01DX005 (ip), vehicle: Klucel (hydroxypropylcellulose) (HPC)) 114 % of control; under setting [3], 109 % of control; (dose: 36.0 mg/kg/injection, schedule: Q01DX005 (ip), vehicle: Klucel (hydroxypropylcellulose) (HPC)) 97 % of control and 100 % of control; under setting [4], 118 % of control; (dose: 60.0 mg/kg/injection, schedule: Q01DX005 (ip), vehicle: Klucel (hydroxypropylcellulose) (HPC)) 226 % of control and 100 % of control; under setting [5], 99 % of control and 112 % of control. Besides, the T/C was 117 % of control (dose: 166.66 mg/kg/injection, schedule: Q01DX005 (ip), vehicle: Klucel (hydroxypropylcellulose) (HPC)) and 119 % of control (dose: 200.0 mg/kg/injection, schedule: Q01DX005 (ip), vehicle: Klucel (hydroxypropylcellulose) (HPC)).
As for `COc1cc([C@@H]2c3cc4c(cc3[C@@H](OC3OC5COC(C)OC5C(O)C3O)[C@H]3COC(=O)[C@H]23)OCO4)cc(OC)c1O` (stereo partly specified), the T/C (dose: 18.0 mg/kg/injection, schedule: Q04DX003 (ip), vehicle: Klucel (hydroxypropylcellulose) (HPC)) was 113 % of control; the T/C (dose: 27.0 mg/kg/injection, schedule: Q04DX003 (ip), vehicle: Klucel (hydroxypropylcellulose) (HPC)) was 119 % of control; the T/C (dose: 40.0 mg/kg/injection, schedule: Q04DX003 (ip), vehicle: Klucel (hydroxypropylcellulose) (HPC)) was 110 % of control.

The values above are taken from PubChem BioAssay AID322 (DTP/NCI, 2004).
